In US10322154B2, “Sandalwood oil and its uses related to clostridium infections” (Santalis Pharmaceuticals, Inc., priority 2012, dated 2019):
Values joined by “and” are separate entries in the source; they are usually repeats but may differ in a detail not shown here. Equal values may be shown once.

Tested on: Clostridium difficile
Test: C. difficile challenge in mice, qualitative fecal pellet analysis
Type: in vivo, C57BL/6 mouse
Parameters: key: +: positive (for the presence of C. difficile in the stool); −: negative
Settings: 50 mg/kg oral gavage Days 0-4, per animal
Procedure: Challenge Preparation: Challenge preparation was performed inside an anaerobe glove box in IW 305 in order to minimize oxygen exposure. A seed stock of the challenge organism (C. difficile) was thawed and added to the appropriate growth medium on Day −1. The organism was incubated anaerobically overnight (18-24 hrs) at 37° C. On the day of challenge (Day 0), the culture was diluted in DPBS to achieve a target concentration of 10^4 CFU/dose. Syringes with attached gavage needles were loaded with challenge material and placed on ice for transfer to the animal group.
Polymer Carrier: The polymer carrier used in these studies was a composition comprising polyethylene glycol 8000 (PEG8000) and hydroxypropyl methylcellulose acetate succinate (HPMCAS-LF). HPMCAS-LF was used to make the polymer insoluble at low pH. The formulation comprising a polymer carrier and sandalwood oil comprised about 50% PEG8000, about 41.67% sandalwood oil and about 8.33% HPMCAS-LF.
60 female C57BL\6 mice that weighed approximately 26-30 grams and were approximately 7-11 weeks old on Day 0 were used. The C57BL/6 mouse is susceptible to C. difficile and used extensively as a good animal model for the evaluation of antibacterial therapeutics. Treatments were administered via oral gavage and/or intraperitoneally in order to mimic treatment in humans. The challenge was administered via oral gavage as this is both an effective and minimally invasive route of administration that mimics the natural route of infection.
The body weights required for randomization were determined in Week −1 (the lowest body weights were excluded from randomization). After randomization, mice were assigned to one of six groups as indicated below in Table 6:
Treatment Procedure: All treatment doses were vortexed before administration to animals. On Days −6, −5 and −4, animals were administered the antibiotic cocktail via oral gavage at a volume of 0.3 mL. Treatments were administered ±1 hour from the initial day of dosing. On Day −1, animals were administered Clindamycin (10 mg/kg) via intraperitoneal (IP) at a volume of 0.4 mL. Post-challenge on Days 0-4, animals were administered the appropriate test article as listed in the table above via oral gavage at a volume of 0.3 mL. Treatments were administered ±1 hour from the initial day of dosing.
Challenge: On Day 0, mice were challenged via oral gavage with Clostridium difficile at a volume of 0.2 mL. The bacterial suspension was supplied (and maintained) on ice in pre filled syringes and inverted prior to administration to each group. […]
Microbiology Analysis: To isolate C. difficile, fecal pellets or swabs were solubilized in PBS and then cultured onto CDSA. […] Results were recorded as positive (for the presence of C. difficile in the stool) or negative.

For `CN[C@H](CC(C)C)C(=O)N[C@H]1C(=O)N[C@@H](CC(N)=O)C(=O)N[C@H]2C(=O)N[C@H]3C(=O)N[C@H](C(=O)N[C@H](C(=O)O)c4cc(O)cc(O)c4-c4cc3ccc4O)[C@H](O)c3ccc(c(Cl)c3)Oc3cc2cc(c3O[C@@H]2O[C@H](CO)[C@@H](O)[C@H](O)[C@H]2O[C@H]2C[C@](C)(N)[C@H](O)[C@H](C)O2)Oc2ccc(cc2Cl)[C@H]1O` [Vancomycin], the “Qualitative Fecal Pellet Analysis (presence of C. difficile in the stool)” value (“Qualitative Fecal Pellet Analysis” for short) (Day 1) was “−”, the “Qualitative Fecal Pellet Analysis” value (Day 2, 50 mg/kg) was “− (9×) and +” and the “Qualitative Fecal Pellet Analysis” value (Day 3) was “−”. The “Qualitative Fecal Pellet Analysis” value (Day 4) was “−”.
